What was measured:
Experiment in all cases: differential drug sensitivity score (dDSS) relative to sarcoma reference cohort mean DSS (DSS units (0-100 scale difference)); higher = more selective sensitivity than reference sarcomas
Details in all cases: exposure time: 72 h; concentration range: 10-10000 nM
CDS-ZH001-2 = test system: CDS-ZH001-2 (patient-derived CIC-DUX4 sarcoma tumoroid)
Procedure: (§1)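 Drug response profiling of patient-derived Ewing sarcoma and CIC::DUX4 sarcoma tumoroid models (or cells tested directly after isolation from the tumor, 'direct'). The DSS is the normalised AUC (0-100); dDSS is the sample DSS minus the mean DSS of a 34-sarcoma reference cohort profiled in the same lab.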

CDS-ZH001 = test system: CDS-ZH001 (patient-derived CIC-DUX4 sarcoma tumoroid)
Procedure: as §1

CDS-ZH002 direct = test system: CDS-ZH002 direct (CIC-DUX4 sarcoma cells right after isolation)
Procedure: as §1

CDS-ZH002 = test system: CDS-ZH002 (patient-derived CIC-DUX4 sarcoma tumoroid)
Procedure: as §1

CDS-ZH003 = test system: CDS-ZH003 (patient-derived CIC-DUX4 sarcoma tumoroid)
Procedure: as §1

ES-ZH001 = test system: ES-ZH001 (patient-derived Ewing sarcoma tumoroid)
Procedure: as §1

ES-ZH002 = test system: ES-ZH002 (patient-derived Ewing sarcoma tumoroid)
Procedure: as §1

ES-ZH004 = test system: ES-ZH004 (patient-derived Ewing sarcoma tumoroid)
Procedure: as §1

ES-ZH007 = test system: ES-ZH007 (patient-derived Ewing sarcoma tumoroid)
Procedure: as §1

ES-ZH008 = test system: ES-ZH008 (patient-derived Ewing sarcoma tumoroid)
Procedure: as §1

ES-ZH009 = test system: ES-ZH009 (patient-derived Ewing sarcoma tumoroid)
Procedure: as §1

ES-ZH016 direct = test system: ES-ZH016 direct (Ewing sarcoma cells right after isolation)
Procedure: as §1

ES-ZH016 = test system: ES-ZH016 (patient-derived Ewing sarcoma tumoroid)
Procedure: as §1

SMILES | differential drug sensitivity score (CDS-ZH001-2) | differential drug sensitivity score (CDS-ZH001) | differential drug sensitivity score (CDS-ZH002 direct) | differential drug sensitivity score (CDS-ZH002) | differential drug sensitivity score (CDS-ZH003) | differential drug sensitivity score (ES-ZH001) | differential drug sensitivity score (ES-ZH002) | differential drug sensitivity score (ES-ZH004) | differential drug sensitivity score (ES-ZH007) | differential drug sensitivity score (ES-ZH008) | differential drug sensitivity score (ES-ZH009) | differential drug sensitivity score (ES-ZH016 direct) | differential drug sensitivity score (ES-ZH016)
C[C@@H]1COCCN1c1cc(-c2ccnn2C)c2ccnc(-c3ccn[nH]3)c2n1 [Elimusertib] | 11.3 | 7.3 | -5.1 | 0.9 | 7.8 | 7 | 10.8 | 9.6 | 10.1 | 11.6 | 10.9 | 12.4 | 6.4
NC(=O)/C(=C/n1cnc(-c2cc(C(F)(F)F)cc(C(F)(F)F)c2)n1)c1cncnc1 [Eltanexor] | 8 | 0.5 | -5.9 | -5.7 | -13.9 | -3.8 | 5 | 14 | 0.4 | 16.8 | -14.4 | 22 | -5.7
CC(C)(O)CNc1nc(Nc2ccnc(C(F)(F)F)c2)nc(-c2cccc(C(F)(F)F)n2)n1 [Enasidenib] | -1.3 | -1.3 | -1.3 | -1.3 | -1.3 | -1.3 | -1.3 | -0.7 | -1 | -1.3 | -1.3 | -1.3 | -1.3
C[C@@H]1CN(C(=O)c2ccc(NC(=O)c3cc(O[C@H](C)c4c(Cl)ccc(F)c4Cl)c(N)nn3)cc2)C[C@H](C)N1 [Ensartinib] | 5.2 | 5 | -1.9 | -0.8 | -1.2 | 4.7 | 15.2 | 4.3 | 4.2 | 13.9 | -2.1 | 3.7 | 3.9
Nc1ccccc1NC(=O)c1ccc(CNC(=O)OCc2cccnc2)cc1 [Entinostat] | 0.5 | -4.9 | 1.3 | -3 | -2.1 | 0.2 | 4.9 | 7.1 | 5.5 | 5.6 | 2.1 | 5.6 | -0.2
c1cn2cc(-c3ccc4cn[nH]c4c3)nc(Nc3ccc(N4CCOCC4)cc3)c2n1 [Entospletinib] | 10.6 | -2.1 | -1.8 | 13.4 | 0 | -2.1 | -2.1 | -2.1 | -2.1 | -2.1 | -2.1 | 13.1 | -2.1
CN1CCN(c2ccc(C(=O)Nc3n[nH]c4ccc(Cc5cc(F)cc(F)c5)cc34)c(NC3CCOCC3)c2)CC1 [Entrectinib] | 7.7 | 2 | -2.3 | 0.2 | -4.3 | 3 | 8.1 | 12.9 | -1.1 | 6 | 2 | 10.8 | 2.3
NS(=O)(=O)NCCNc1nonc1/C(=N/O)Nc1ccc(F)c(Br)c1 [Epacadostat] | -0.7 | -0.7 | -0.7 | -0.7 | 0.6 | -0.7 | -0.2 | 0 | -0.7 | 5.6 | 0 | -0.5 | 0.1
COc1cc(OC)cc(N(CCNC(C)C)c2ccc3ncc(-c4cnn(C)c4)nc3c2)c1 [Erdafitinib] | -0.4 | -1.4 | -4.5 | -4 | -8 | -2.3 | 7.8 | 5 | -2.5 | 10.1 | -1.7 | 12.1 | -3.7
C#Cc1cccc(Nc2ncnc3cc(OCCOC)c(OCCOC)cc23)c1 [Erlotinib] | -1.1 | -1.1 | -1.1 | -1.1 | -1.1 | -1.1 | -1.1 | -1.1 | -1.1 | -1.1 | -1.1 | -1.1 | -1.1
COc1cc([C@@H]2c3cc4c(cc3[C@@H](O[C@@H]3O[C@@H]5CO[C@@H](C)O[C@H]5[C@H](O)[C@H]3O)[C@H]3COC(=O)[C@H]23)OCO4)cc(OC)c1O [Etoposide] | 3.8 | -1.6 | -7.3 | -4.3 | -6.8 | 10 | 25.5 | 11.7 | 6.1 | 13.6 | 8.6 | 7.2 | 8.7
CO[C@H]1C[C@@H]2CC[C@@H](C)[C@@](O)(O2)C(=O)C(=O)N2CCCC[C@H]2C(=O)O[C@H]([C@H](C)C[C@@H]2CC[C@@H](OCCO)[C@H](OC)C2)CC(=O)[C@H](C)/C=C(\C)[C@@H](O)[C@@H](OC)C(=O)[C@H](C)C[C@H](C)/C=C/C=C/C=C/1C [Everolimus] | -3.9 | -5.3 | -6.4 | -7.4 | -3.3 | 5.3 | 13.6 | 12 | 9.6 | 4.8 | 9.3 | -7 | -3.5
Cc1cnc(Nc2ccc(OCCN3CCCC3)cc2)nc1Nc1cccc(S(=O)(=O)NC(C)(C)C)c1 [Fedratinib] | 0.2 | -0.1 | -3.3 | -1.7 | -2.2 | 1.8 | 5.5 | -3.2 | -1.8 | 1.5 | 3.9 | -0.1 | -1.3
Nc1nc(F)nc2c1ncn2[C@@H]1O[C@H](CO)[C@@H](O)[C@@H]1O [Fludarabine] | 3.9 | -3.2 | 2.5 | -0.8 | -2.8 | 4.6 | 8.7 | 5.3 | 3.9 | -1.1 | -3.2 | 11.5 | 1.4
CN[C@@H](C)C(=O)N[C@H](C(=O)N1CCC[C@H]1C(=O)Nc1snnc1-c1ccccc1)C1CCCCC1 [GDC0152] | 7.6 | 12.4 | 5.8 | -2.5 | 11.1 | -3.6 | 1.9 | 4.8 | -0.8 | 10.7 | 4.5 | 0.6 | -3.6
Nc1ccn([C@@H]2O[C@H](CO)[C@@H](O)C2(F)F)c(=O)n1 [Gemcitabine] | 1.8 | 4.5 | -7 | -4.9 | -7 | 23.1 | 24.8 | 20.1 | 24.5 | 18.7 | 19.6 | 9.7 | 22.4
CCc1nc(C(N)=O)c(Nc2ccc(N3CCC(N4CCN(C)CC4)CC3)c(OC)c2)nc1NC1CCOCC1 [Gilteritinib] | 8 | 7.4 | 1.6 | -1.4 | 10.4 | 1.1 | 16 | 4.2 | 4.2 | 10.2 | 10.1 | 9.4 | 0.8
CCN(CC)Cc1ccc2cc(COC(=O)Nc3ccc(C(=O)NO)cc3)ccc2c1 [Givinostat] | 2.7 | -0.7 | 1.5 | -0.9 | -3.4 | 1.9 | 5.5 | 4.2 | 3.7 | 5.9 | 6.8 | 3.3 | 3.9
CN1CC[C@@H](NC(=O)Nc2ccc(C#N)cc2)C[C@@H]1c1nc2ccccc2[nH]1 [Glasdegib] | -0.8 | -0.8 | -0.8 | -0.8 | 2.5 | -0.8 | 1.3 | -0.8 | -0.8 | -0.8 | -0.8 | -0.8 | -0.8
COc1cccc(-c2cc(F)ccc2[C@H]2Cc3nc(N)nc(C)c3C(=O)N2)n1 [HSP-990] | 0.3 | 1.4 | -4 | -9.2 | 1.3 | 3.8 | 8.8 | -0.8 | 1.2 | 7.1 | 6 | 4.9 | 3.4
COC(=O)C[C@](O)(CCCC(C)(C)O)C(=O)O[C@@H]1C(OC)=C[C@]23CCCN2CCc2cc4c(cc2[C@H]13)OCO4 [Homoharringtonine] | 10.7 | 10.1 | 10 | 6.3 | 1 | 3.5 | 9.7 | 1.9 | 10 | 13.3 | 6 | 2.7 | 3.1
O=[P@]1(N(CCCl)CCCl)N[C@H](OO)CCO1 [Hydroperoxycyclophosphamide] | -2.3 | -0.7 | -3.6 | -3.6 | -4.1 | 1.7 | 7.7 | 6.4 | 0.2 | 6.5 | -1 | 4.6 | 2.2
CCn1cc(-c2cccc(C(F)(F)F)c2)c2sc(C(=N)NC3CCS(=O)(=O)CC3)cc2c1=O [I-BRD9] | 3.3 | 2.7 | -2.6 | -1 | 8.4 | -1.6 | -1.8 | -2.8 | -1.8 | -2.8 | 2.6 | 9.8 | -1.6
O=C(c1ccc(Nc2nccc(-c3cc4ccccc4s3)n2)cc1)N1CCC(N2CCCC2)CC1 [IKK16] | 0 | -0.1 | 0.3 | -4 | 0.7 | -2.5 | 2.3 | -4.1 | -0.6 | 0 | 0.4 | 0.1 | -4.4
O=C(O)CNC(=O)c1c(O)c2ccccc2n(Cc2ccccc2)c1=O [IOX2] | -1.5 | -1.5 | 1 | -1.3 | 3.7 | 3.2 | 5.1 | 0.7 | -0.7 | 3.7 | -1.5 | -1.5 | -1.5
C=CC(=O)N1CCC[C@@H](n2nc(-c3ccc(Oc4ccccc4)cc3)c3c(N)ncnc32)C1 [Ibrutinib] | -2.7 | -2.7 | -2.1 | -2.7 | -2.7 | -2.1 | 0.4 | -2.5 | -2.7 | -2.2 | -2.7 | 1.4 | -2.7
CC(=O)[C@]1(O)Cc2c(O)c3c(c(O)c2[C@@H](O[C@H]2C[C@H](N)[C@H](O)[C@H](C)O2)C1)C(=O)c1ccccc1C3=O [Idarubicin] | 7 | -0.3 | 1.8 | 0.5 | 0.5 | 11.8 | 19.4 | -2.2 | -9.5 | 6.4 | 13.4 | 7.3 | 11.8
COc1cc(C(=O)O)ccc1NC(=O)[C@@H]1N[C@@H](CC(C)(C)C)[C@](C#N)(c2ccc(Cl)cc2F)[C@H]1c1cccc(Cl)c1F [Idasanutlin] | 8.5 | 4 | 10 | 1.9 | 12 | -13.6 | 23 | -13.6 | -13.6 | 19.1 | -13.6 | 15.1 | 6.4

— the supplement of paper PMC12370961
